Source: patent US7439253B2, “Heterocyclic compounds, their preparation and their use as medicaments, in particular as antibacterials and beta-lactamase inhibitors” (Novexel, priority 2002, dated 2008)
pIC50: −log10 of the molar value. Counter-ions that a name gives are not always drawn. Like-named read-outs stand apart in the source and are kept apart here.

What was measured:
β-lactamase TEM1 = biological target: T1, β-lactamase TEM1 (Escherichia coli, UniProt P62593); experiment: β-lactamase inhibiting activity (Nitrocefin hydrolysis); format: biochemical, E. coli 250HT21; conditions: for IC50: 100 μM Nitrocefin, 50 mM sodium phosphate buffer pH 7.0, 37° C., read-out: IC50 nM/TEM1
T1 construct: The β-lactamases are isolated from bacterial strains resistant to penicillins and to cephalosporins; endogenous in cells; host or cells: E. coli 250HT21 (soluble fraction of French-press lysate, 100 000 G supernatant)
Description: (§1) A. Preparation of the β-lactamases Tem˜1 and P99
(§2) The β-lactamases are isolated from bacterial strains resistant to penicillins and to cephalosporins (Tem1 and P99 are produced by E. coli 250HT21 and E. Cloacae 293HT6, respectively).
(§3) The bacteria are cultured in heart-brain broth at 37 g/l (DIFCO), at 37° C. They are harvested at the end of the exponential phase, cooled and centrifuged. The bacterial pellets are taken up in 50 mM sodium phosphate buffer pH 7.0 and again centrifuged. The bacteria are taken up in two volumes of this same buffer and lyzed by means of a French-Press kept at 4° C. After centrifugation for 1 h at 100 000 G, at 4° C., the supernatants containing the soluble fraction of the bacterial extracts are recovered and frozen at −80° C.
(§4) B. Determination of the β-lactamase Activity
(§5) The method uses, as substrate, Nitrocefin (OXOID), a chromogenic cephalosporin, whose product of hydrolysis by Beta-lactamases is red and absorbs at 485 nm. The β-lactamase activity is kinetically determined by measuring the variation in absorbance at 485 nm resulting from the hydrolysis of the substrate on a plate spectrophotometer (Spectra Max Plus from Molecular Devices). The experiments are performed at 37° C. The quantity of enzyme was normalized and the measurements are performed at the initial speed.
(§6) C. Determination of the β-lactamase Inhibiting Activity
(§7) Two measurements are carried out, without preincubation and with preincubation of the enzyme and of the inhibitor (5 min), in order to test the irreversibility of the reaction. The products are tested at 6 or 8 concentrations in duplicate. The reaction mixture contains 100 μM of Nitrocefin and 50 mM sodium phosphate buffer pH 7.0. D. Calculations of the IC50 Values
(§8) The rates of hydrolysis are measured with and without inhibitor. The concentration of inhibitor which inhibits by 50% the reaction of hydrolysis of Nitrocefin by the enzyme (IC50) is determined. The data processing is carried out with the aid of the GraFit software (Erathycus Software).

β-lactamase P99 = biological target: T2, β-lactamase P99 (Enterobacter cloacae, UniProt P05364); experiment: biochemical; format: biochemical
T2 construct: The β-lactamases are isolated from bacterial strains resistant to penicillins and to cephalosporins; endogenous in cells; host or cells: E. cloacae 293HT6 (soluble fraction of French-press lysate, 100 000 G supernatant)
Description: as §1, §2, §3, §4, §5, §6, §7, §8

[1] = 100 μM Nitrocefin, 50 mM sodium phosphate buffer pH 7.0, 37° C.

T2 sequence (P05364 21-381): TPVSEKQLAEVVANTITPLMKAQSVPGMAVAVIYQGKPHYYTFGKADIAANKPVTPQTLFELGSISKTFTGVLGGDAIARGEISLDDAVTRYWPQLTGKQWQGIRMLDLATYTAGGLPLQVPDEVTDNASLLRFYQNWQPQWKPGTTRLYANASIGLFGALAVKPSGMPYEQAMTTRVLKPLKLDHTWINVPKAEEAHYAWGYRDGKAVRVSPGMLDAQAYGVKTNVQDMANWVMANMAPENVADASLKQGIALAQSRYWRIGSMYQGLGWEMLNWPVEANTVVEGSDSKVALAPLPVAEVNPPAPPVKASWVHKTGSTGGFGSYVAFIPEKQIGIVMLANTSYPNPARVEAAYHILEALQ
T1 sequence (P62593 24-286 limits assumed): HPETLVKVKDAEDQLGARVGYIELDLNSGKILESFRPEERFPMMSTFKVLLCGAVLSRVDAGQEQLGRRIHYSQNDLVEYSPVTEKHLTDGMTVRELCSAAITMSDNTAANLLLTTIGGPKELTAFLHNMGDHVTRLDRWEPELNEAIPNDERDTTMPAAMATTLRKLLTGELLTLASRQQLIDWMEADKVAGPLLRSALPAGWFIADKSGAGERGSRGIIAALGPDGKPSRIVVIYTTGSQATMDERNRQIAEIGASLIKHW

CC1(C)OCC(COc2ccc3c(c2)C2CN(C(=O)N2OS(=O)(=O)O)C3C(N)=O)O1 (stereo not drawn) [Example 42, Sodium Salt of trans-8-[(2,2-dimethyl-1,3-dioxolan-4-yl)methoxy]-1,2,3,5-tetrahydro-3-oxo-2-(sulfoxy)-1,4-methano-4H-2,4-benzodiazepine-5-carboxamide]
pIC50 (β-lactamase TEM1): 7.82
IC50 (β-lactamase P99; [1]): 44 nM

COC(=O)[C@@H]1c2nn(Cc3ccccc3)cc2[C@H]2CN1C(=O)N2OS(=O)(=O)O (relative stereo) [Example 1, triethylammonium salt of methyl trans-2,5,6,8-tetrahydro-6-oxo-2-(phenylmethyl)-5-(sulfoxy)-4H-4,7-methanopyrazolo[3,4-e][1,3]diazepine-8-carboxylate]
IC50 (β-lactamase TEM1): 3 nM
IC50 (β-lactamase P99; [1]): 5 nM

COC(=O)C1c2c(cnn2CCc2ccccc2)C2CN1C(=O)N2OS(=O)(=O)O (stereo not drawn) [Example 2, Triethylammonium Salt of Methyl trans-4,5,6,8-tetrahydro-6-oxo-1-(phenylethyl)-5-(sulfoxy)-1H-4,7-methanopyrazolo[3,4-e][1,3]diazepine-8-carboxylate]
pIC50 (β-lactamase TEM1): 7.80
IC50 (β-lactamase P99; [1]): 20 nM

COCCOCOc1ccc2c(c1)[C@@H]1CN(C(=O)N1OS(=O)(=O)O)[C@H]2C(=O)NOC (relative stereo) [Example 33, Sodium Salt of Trans-1,2,3,5-tetrahydro-N-methoxy-8-[(2-methoxyethoxy)methoxy]-3-oxo-2-(sulfoxy)-1,4-methano-4H-2,4-benzodiazepine-5-carboxamide]
IC50 (β-lactamase TEM1): 56 nM
IC50 (β-lactamase P99; [1]): 17 nM

CCOC(=O)[C@@H]1c2c(-c3ccc(F)cc3)csc2[C@H]2CN1C(=O)N2OS(=O)(=O)O (relative stereo) [Example 44, Sodium Salt of ethyl trans-3-(4-fluorophenyl)-4,6,7,8-tetrahydro-6-oxo-7-(sulfoxy)-5,8-methano-5H-thieno[2,3-e][1,3]diazepine-4-carboxylate]
IC50 (β-lactamase TEM1): 34 nM
IC50 (β-lactamase P99; pH 7): 2 nM

CCOC(=O)[C@H]1c2ccc(OS(=O)(=O)C(F)(F)F)cc2[C@@H]2CN1C(=O)N2OS(=O)(=O)O (relative stereo) [Example 40, Sodium Salt of ethyl trans-1,2,3,5-tetrahydro-3-oxo-2-(sulfoxy)-8-[[(triluoromethyl)sulfonyl]oxy]-1,4-methano-4H-2,4-benzodiazepine-5-carboxylate]
IC50 (β-lactamase TEM1): 11 nM
IC50 (β-lactamase P99; pH 7): 12 nM

COC(=O)[C@@H]1c2nn(CCc3ccccc3)cc2[C@H]2CN1C(=O)N2OS(=O)(=O)O (relative stereo) [Example 3, Triethylammonium Salt of Methyl trans-2,5,6,8-tetrahydro-6-oxo-2-(2-phenylethyl)-5-(sulfoxy)-4H-4,7-methanopyrazolo[3,4-e][1,3]diazepine-8-carboxylate]
IC50 (β-lactamase TEM1): 2 nM
IC50 (β-lactamase P99; [1]): 11 nM

CCc1ccccc1-c1cc2c(s1)[C@@H](C(N)=O)N1C[C@H]2N(OS(=O)(=O)O)C1=O (relative stereo) [Example 26, Sodium Salt of Trans-2-(2-ethylphenyl)-4,5,6,8-tetrahydro-6-oxo-5-(sulfoxy)-4,7-methano-7H-thieno[2,3-e][1,3]diazepine-8-carboxamide]
IC50 (β-lactamase TEM1): 1 nM
IC50 (β-lactamase P99; [1]): 6 nM

CCOC(=O)[C@H]1c2cccc(OC(=O)Nc3ccccc3)c2[C@@H]2CN1C(=O)N2OS(=O)(=O)O (relative stereo) [Example 28, Sodium Salt of Ethyl Trans-1,2,3,5-tetrahydro-3-oxo-9-[[(phenylamino)carbonyl]oxy]-2-(sulfoxy)-1,4-methano-4H-2,4-benzodiazepine-5-carboxylate]
IC50 (β-lactamase TEM1): 33 nM
IC50 (β-lactamase P99; [1]): 25 nM

COC(=O)[C@@H]1c2nn(CC(=O)O)cc2[C@H]2CN1C(=O)N2OS(=O)(=O)O (relative stereo) [Example 9, Di(triethylammonium) Salt of Trans-5,6-dihydro-8-(methoxycarbonyl)-6-oxo-5-sulfoxy-4H-4,7-methanopyrazolo[3,4-e][1,3]diazepine-2(8H)-acetic acid]
IC50 (β-lactamase TEM1): 60 nM
IC50 (β-lactamase P99; [1]): 50 nM

CCOC(=O)Cn1cc2c(n1)[C@@H](C(=O)OC)N1C[C@H]2N(OS(=O)(=O)O)C1=O (relative stereo) [Example 5, Triethylammonium Salt of Ethyl Trans-5,6-dihydro-8-(methoxycarbonyl)-6-oxo-5-(sulfoxy)-4H-4,7-methanopyrazolo[3,4-e][1,3]diazepine-2(8H)-acetate]
IC50 (β-lactamase TEM1): 13 nM
IC50 (β-lactamase P99; [1]): 17 nM

O=C1N2Cc3c(cnn3-c3ccccc3)C(C2)N1OS(=O)(=O)O (centres unmarked) [Example 46, Sodium Salt of 1,4,5,8-tetrahydro-1-phenyl-5-(sulfoxy)-6H-4,7-methanopyrazolo[3,4-e][1,3]diazepin-6-one]
pIC50 (β-lactamase TEM1): 8.30
IC50 (β-lactamase P99; [1]): 80 nM

CCOC(=O)Cn1ncc2c1C(C(=O)OC)N1CC2N(OS(=O)(=O)O)C1=O (stereo not drawn) [Example 4, Triethylammonium Salt of Ethyl Trans-4,5,6,8-tetrahydro-8-(methoxycarbonyl)-6-oxo-5-(sulfoxy)-1H-4,7-methanopyrazolo[3,4-e][1,3]diazepine-1-acetate]
pIC50 (β-lactamase TEM1): 7.47
IC50 (β-lactamase P99; [1]): 7 nM

COC(=O)C1c2sc(-c3ccc(F)cc3)cc2C2CN1C(=O)N2OS(=O)(=O)O (stereo not drawn) [Example 19, Sodium Salt of Methyl Trans-2-(4-fluorophenyl)-4,5,6,8-tetrahydro-6-oxo-5-(sulfoxy)-4,7-methano-7H-thieno[2,3-e][1,3]diazepine-8-carboxylate]
pIC50 (β-lactamase TEM1): 8.30
IC50 (β-lactamase P99; [1]): 16 nM

NC(=O)C1c2nn(C(=O)Nc3ccccc3)cc2C2CN1C(=O)N2OS(=O)(=O)O (centres unmarked) [Example 7, Triethylammonium Salt of 5,6-dihydro-6-oxo-N-2-phenyl-5-(sulfoxy)-4H-4,7-methanopyrazolo[3,4-e][1,3]diazepine-2,8(8H)-dicarboxamide]
IC50 (β-lactamase TEM1): 1 nM
IC50 (β-lactamase P99; [1]): 14 nM

NC(=O)[C@H]1c2ccc(OCCOS(=O)(=O)O)cc2[C@@H]2CN1C(=O)N2OS(=O)(=O)O (relative stereo) [Example 41, Disodium Salt of trans-1,2,3,5-tetrahydro-3-oxo-2-(sulfoxy)-8-[2-(sulfoxy)ethoxy]-1,4-methano-4H-2,4-benzodiazepine-5-carboxamide]
IC50 (β-lactamase TEM1): 9 nM
IC50 (β-lactamase P99; [1]): 29 nM

NC(=O)C1c2nn(-c3ccccc3)cc2C2CN1C(=O)N2OS(=O)(=O)O (stereo not drawn) [Example 45, Sodium Salt of trans-2,5,6,8-tetrahydro-6-oxo-2-phenyl-5-(sulfoxy)-4H-4,7-methanopyrazolo[3,4-e][1,3]diazepine-8-carboxamide]
pIC50 (β-lactamase TEM1): 9.00
IC50 (β-lactamase P99; [1]): 12 nM

Cc1ccccc1-c1cc2c(s1)[C@@H](C(N)=O)N1C[C@H]2N(OS(=O)(=O)O)C1=O (relative stereo) [Example 24, Sodium Salt of Trans-4,5,6,8-tetrahydro-2-(2-methylphenyl)-6-oxo-5-(sulfoxy)-4,7-methano-7H-thieno[2,3-e][1,3]diazepine-8-carboxamide]
IC50 (β-lactamase TEM1): 2 nM
IC50 (β-lactamase P99; [1]): 10 nM

COC(=O)[C@@H]1c2sc(C(N)=O)cc2[C@H]2CN1C(=O)N2OS(=O)(=O)O (relative stereo) [Example 21, Sodium Salt of Methyl Trans-2-(aminocarbonyl)-4,5,6,8-tetrahydro-6-oxo-5-(sulfoxy)-4,7-methano-7H-thieno[2,3-e][1,3]diazepine-8-carboxylate]
IC50 (β-lactamase TEM1): 7 nM
IC50 (β-lactamase P99; [1]): 69 nM
